Source: patent US20230080819A1, “HERBICIDE COMBINATIONS COMPRISING GLUFOSINATE AND TIAFENACIL” (BASF SE, priority 2020, published 2023)

Columns and labels:
Type in all cases: in vivo
Details in all cases: 20 DAT
[1] = test system: Amaranthus tuberculatus (AMATU); experiment: Greenhouse post-emergence weed control, waterhemp
[2] = test system: Amaranthus Palmeri (AMAPA); experiment: Greenhouse post-emergence weed control, Palmer Amaranth
Galium aparine (GALAP) = experiment: Greenhouse post-emergence weed control, Cleavers
[3] = test system: Echinochloa crus-galli (ECHCG); experiment: Greenhouse post-emergence weed control, barnyardgrass

SMILES	Solo % activity ([1]; Glufosinate 50 g ai/ha solo, post-emergence, AMATU, 1% MSO)	Solo % activity ([1]; Glufosinate 100 g ai/ha solo, AMATU)	Solo % activity ([1]; Glufosinate 200 g ai/ha solo, AMATU)	Solo % activity ([2]; Glufosinate 100 g ai/ha solo)	Solo % activity ([2]; Glufosinate 200 g ai/ha solo)	Solo % activity (Galium aparine (GALAP); Glufosinate 100 g ai/ha solo)	Solo % activity ([3]; Glufosinate 50 g ai/ha solo, ECHCG)	Solo % activity ([3]; Glufosinate 100 g ai/ha solo, ECHCG)	Solo % activity ([1]; Tiafenacil 1.5 g ai/ha solo, AMATU (Table 2))	Solo % activity ([1]; Tiafenacil 1.5 g ai/ha solo, AMATU (Table 5))	Solo % activity ([1]; Tiafenacil 1.5 g ai/ha solo, post-emergence, AMATU, 1% MSO)	Solo % activity ([2]; Tiafenacil 0.15 g ai/ha solo)	Solo % activity ([2]; Tiafenacil 1.5 g ai/ha solo)	Solo % activity (Galium aparine (GALAP); Tiafenacil 0.5 g ai/ha solo)	Solo % activity ([3]; Tiafenacil 0.5 g ai/ha solo, ECHCG (Table 3))	Solo % activity ([3]; Tiafenacil 0.5 g ai/ha solo, ECHCG (Table 7))
CP(=O)(O)CCC(N)C(=O)O (racemic) [Glufosinate, (2RS)-2-amino-4-[hydroxy(methyl)phosphinoyl]butyric acid]	10%	10%	70%	25%	75%	60%	10%	25%								
COC(=O)CCNC(=O)C(C)Sc1cc(-n2c(=O)cc(C(F)(F)F)n(C)c2=O)c(F)cc1Cl (stereo not shown) [Tiafenacil, tiafenacil]									15%	15%	15%	0%	25%	0%	10%	10%
